Experimental data from patent US20220402873A1, “NOVEL P62 LIGAND COMPOUND, AND COMPOSITION CONTAINING SAME FOR PREVENTING, AMELIORATING, OR TREATING PROTEINOPATHIES” (AUTOTAC INC., priority 2019, published 2022).

Assays:
Format in all cases: cell-based
p62 protein [1] = molecular target: T1, p62 protein (Homo sapiens, UniProt Q13501); assay: Oligomerization activity of p62 protein by immunoblotting; design: endogenous in cells; settings: HEK293 cell line lysate treated with test compounds for 2 hours at room temperature
T1 sequence (Q13501 whole entry): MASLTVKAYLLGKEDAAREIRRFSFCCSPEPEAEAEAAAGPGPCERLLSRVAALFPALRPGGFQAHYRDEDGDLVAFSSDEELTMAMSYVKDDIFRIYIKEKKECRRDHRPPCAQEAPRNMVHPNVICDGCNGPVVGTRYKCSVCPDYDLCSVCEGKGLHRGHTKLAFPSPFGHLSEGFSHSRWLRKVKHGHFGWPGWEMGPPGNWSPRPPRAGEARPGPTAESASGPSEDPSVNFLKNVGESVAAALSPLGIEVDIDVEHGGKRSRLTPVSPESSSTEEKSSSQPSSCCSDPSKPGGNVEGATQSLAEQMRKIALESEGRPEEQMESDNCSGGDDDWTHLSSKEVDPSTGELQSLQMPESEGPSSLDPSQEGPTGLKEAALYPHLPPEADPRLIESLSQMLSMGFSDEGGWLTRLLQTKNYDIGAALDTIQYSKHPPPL
Source text: In order to evaluate the oligomerization activity efficacy of p62 protein of the compounds (Examples 1-20), HEK293 cell line, which is human embryonic kidney-derived cell, was collected. As representative compounds of the present compounds, the compounds of Examples 1-20 (Example 1 (ATB10048), Example 2 (ATB10047), Example 3 (ATB10049), Example 4 (ATB10051), Example 5 (ATB10050), Example 6 (ATB10056), Example 7 (ATB10052), Example 8 (ATB10057), Example 9 (ATB10060), Example 10 (ATB10072), Example 11 (ATB10075), Example 12 (ATB10078), Example 13 (ATB10079), Example 14 (ATB10080), Example 15 (ATB10081), Example 16 (ATB10087), Example 17 (ATB10096), Example 18 (ATB10097), Example 19 (ATB10099) and Example 20 (ATB10100)) were selected, and in order to measure the activation and oligomerization of the p62 protein in cells according to the treatment with these selected representative compounds, each cell was dispensed into a 100 phi dish. The cells were collected after additional culture for 24 hours so that the cells were completely attached to the surface of the plate, and 100 ul of lysis buffer (20 mM Tris (pH 7.4), 150 mM NaCl, 1% Triton X-100, 2 mM NaF, 2 mM EDTA, 2 mM beta-glycerophosphate, 5 mM sodium orthovanadate, 1 mM PMSF, leupeptin, aproteinin) was injected to each sample, and the cells were lysed. Based on the measured total protein concentration, each sample was treated with the test compounds for 2 hours at room temperature, and then a sample buffer was added and reacted at 95° C. for 10 minutes. 25 ul was taken from the samples after the reaction was completed and dispensed into each well of an acrylamide gel, and immunoblotting was performed.

p62 protein [2] = molecular target: T1, p62 protein; assay: Activity of p62 protein and delivery of ubiquitinated substrate proteins to autophagy by immunofluorescence staining (p62, FK2) and confocal microscopy; design: endogenous in cells; host or cells: HeLa; settings: Hela cell line, 1 uM, 6 hours
Method: Immunofluorescence staining was performed using p62 and FK2 as markers to determine the level of the activity of p62 protein of the compounds (Examples 1-20). In order to determine the level of p62 activity and autophagy activity by the novel p62 ligand and its isomers in the cultured cells, the Hela cell line derived from cervical cancer patients was treated with a novel p62 ligand compound (Example 1 (ATB10048), Example 2 (ATB10047), Example 3 (ATB10049), Example 5 (ATB10050), Example 4 (ATB10051), Example 7 (ATB10052), Example 6 (ATB10056), Example 8 (ATB10057), Example 9 (ATB10060), Example 10 (ATB10072), Example 11 (ATB10075), Example 12 (ATB10078), […], Example 14 (ATB10080), Example 15 (ATB10081), Example 16 (ATB10087)), Example 17 (ATB0096), Example 18 (ATB10097), Example 19 (ATB10099) and Example 20 (ATB10100)) and cultured, and then the level of puncta expression and location of FK2, which was a marker of the protein to be delivered to and degraded in the autophagy through the mediation of the intracellular ubiquitinated p62, and the puncta local co-existence with p62 were observed.
For immunofluorescence staining, a cover glass was placed on a 24-well plate, cells were dispensed and cultured for 24 hours, and then 1 uM of the novel p62 ligand according to the present invention was treated. After culturing for an additional 6 hours for the action of the compound, the medium was removed, and the cells were fixed using formaldehyde at room temperature. In order to prevent non-specific staining, the cells were reacted with a blocking solution at room temperature for 1 hour, and then the LC3 antibody diluted at a certain ratio was treated with a blocking solution and then reacted at room temperature for 1 hour. After the antibody-treated cells were washed 3 times with PBS, the goat-derived secondary antibody was diluted at a certain ratio using the blocking solution, and then reacted at room temperature for 30 minutes. After further washing with PBS three times, and DAPI staining was performed for intracellular nuclear staining. Then, the level of expression of p62 or FK2, the level of intracellular puncta formation, and the level of coexistence in the cells were observed by a confocal microscope.

p62 protein [3] = molecular target: T1, p62 protein; assay: Activity of p62 protein and delivery to autophagosome by immunofluorescence staining (p62, LC3-GFP) and confocal microscopy; design: endogenous in cells; host or cells: HeLa; settings: Hela-LC3-GFP cell line, 5 uM, 24 hours
Method: Immunofluorescence staining was performed using p62 and FK2 marker to determine the level of activity of p62 protein of the compounds (Examples 1-20). In order to determine the level of p62 activity and autophagy activity by the novel p62 ligand and its isomers in cultured cells, Hela-LC3-GFP cell line derived from cervical cancer patients was treated with the novel p62 ligand compounds (Example 2 (ATB10047), Example 3 (ATB10049), Example 4 (ATB10051), Example 6 (ATB10056), Example 9 (ATB10060), Example 12 (ATB10078), Example 16 (ATB10087) and Example (ATB10097)) and cultured. Then, the level of puncta expression and location of LC3-GFP, which is an essential autophagosome marker for macroautophagy, and the puncta local co-existence of p62 were observed.
For immunofluorescence staining, a cover glass was placed on a 24-well plate, cells were dispensed and cultured for 24 hours, and then treated with 5 uM of the novel p62 ligand according to the present invention. The cells were further cultured for an additional 24 hours for the action of the compound, the medium was removed, and the cells were fixed using formaldehyde at room temperature. In order to prevent non-specific staining, the cells were reacted with a blocking solution at room temperature for 1 hour, and then the LC3 antibody diluted at a certain ratio was treated with the blocking solution and then reacted at room temperature for 1 hour. After the antibody-treated cells were washed 3 times with PBS, the goat-derived secondary antibody was diluted at a certain ratio using the blocking solution, and then reacted at room temperature for 30 minutes. The cells were washed again with PBS three times and subjected to DAPI staining for intracellular nuclear staining, and then the level of expression of p62 or LC3, intracellular puncta formation, and intracellular coexistence level were observed by a confocal microscope.

Row | SMILES | p62 protein oligomerization activity (immunoblot, FIGS. 2a to 2d) (p62 protein [1]) | delivery of ubiquitinated proteins marked with FK2 to autophagosome mediated by p62 (FIGS. 3a to 3d) (p62 protein [2]) | targeting of activated, oligomerized p62 protein to the autophagosome (FIG. 4) (p62 protein [3])
1 | OCCNCc1ccc(CCc2ccccc2)o1 [Example 16, 2-(((5-phenethylfuran-2-yl)methyl)amino)ethan-1-ol] | increasing the p62 protein oligomerization activity | show the efficacy of delivering the proteins to be delivered to and degraded by autophagosome | show the efficacy of targeting them to the autophagosome
2 | O=C(CO)NCc1ccc(OCc2ccccc2)cn1 [Example 3, N-((5-(benzyloxy)pyridin-2-yl)methyl)-2-hydroxyacetamide] | increasing the p62 protein oligomerization activity | show the efficacy of delivering the proteins to be delivered to and degraded by autophagosome | show the efficacy of targeting them to the autophagosome
3 | OCCNCc1ncc(OCc2ccccc2)cn1 [Example 9, 2-(((5-(benzyloxy)pyrimidin-2-yl)methyl)amino)ethan-1-ol] | increasing the p62 protein oligomerization activity | show the efficacy of delivering the proteins to be delivered to and degraded by autophagosome | show the efficacy of targeting them to the autophagosome
4 | OCCNCc1ccc(OCc2ccccc2)o1 [Example 18, 2-(((5-(benzyloxy)-furan-2-yl)methyl)amino)ethan-1-ol] | increasing the p62 protein oligomerization activity | show the efficacy of delivering the proteins to be delivered to and degraded by autophagosome | show the efficacy of targeting them to the autophagosome
5 | O=C(CO)NCc1cc(OCc2ccccc2)ccn1 [Example 4, N-((4-(benzyloxy)pyridin-2-yl)methyl)-2-hydroxyacetamide] | increasing the p62 protein oligomerization activity | show the efficacy of delivering the proteins to be delivered to and degraded by autophagosome | show the efficacy of targeting them to the autophagosome
6 | NC(=O)NCc1ccc(OCc2ccccc2)cn1 [Example 6, 1-((5-(benzyloxy)pyridin-2-yl)methyl)urea] | increasing the p62 protein oligomerization activity | show the efficacy of delivering the proteins to be delivered to and degraded by autophagosome | show the efficacy of targeting them to the autophagosome
